# In ChEMBL document CHEMBL1201862, “PubChem BioAssay data set” (2004):
# Activity calls are given as the source filed them.
# How the values were obtained:
# Estrogen receptor beta [1] = target: T1, Estrogen receptor beta (Homo sapiens, UniProt Q92731);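 further: recombinant ER-beta bound to coactivator SRC1 peptide in presence of estradiol agonist; inhibitors block coactivator peptide binding and lower the FRET signal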
# Estrogen receptor beta [2] = target: T1, Estrogen receptor beta; experiment: ERβ–SRC-3 coactivator interaction inhibitors, confirmation, orthogonal assay, biochemical, ELISA, streptavidin-HRP readout (AID 1060)
# [3] = target: T2, Carboxy-terminal domain RNA polymerase II polypeptide A small phosphatase 1 (Homo sapiens, UniProt Q9GZU7); experiment: inhibitors of CTDSP1, concentration-response testing, biochemical assay, absorbance-based, actives from ultra-high-throughput screening (AID 540297); type: functional
# T2 sequence (Q9GZU7 whole entry): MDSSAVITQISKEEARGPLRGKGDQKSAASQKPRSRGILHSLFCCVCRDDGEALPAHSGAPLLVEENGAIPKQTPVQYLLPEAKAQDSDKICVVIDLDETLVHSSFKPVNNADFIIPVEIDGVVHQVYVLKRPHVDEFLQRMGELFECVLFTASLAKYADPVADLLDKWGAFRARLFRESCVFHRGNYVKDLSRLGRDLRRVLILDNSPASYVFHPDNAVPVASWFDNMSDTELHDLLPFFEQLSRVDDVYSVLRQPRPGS
# [4] = target: T3, Corticotropin-releasing factor receptor 2/Corticotropin-releasing factor-binding protein (Homo sapiens, UniProt P24387+Q13324); experiment: Dose Response confirmation of uHTS hits for small molecule antagonists of the CRF-binding protein and CRF-R2 receptor complex.; type: functional; conditions: read-out: IC50_Mean
# T3 sequence (Q13324 whole entry): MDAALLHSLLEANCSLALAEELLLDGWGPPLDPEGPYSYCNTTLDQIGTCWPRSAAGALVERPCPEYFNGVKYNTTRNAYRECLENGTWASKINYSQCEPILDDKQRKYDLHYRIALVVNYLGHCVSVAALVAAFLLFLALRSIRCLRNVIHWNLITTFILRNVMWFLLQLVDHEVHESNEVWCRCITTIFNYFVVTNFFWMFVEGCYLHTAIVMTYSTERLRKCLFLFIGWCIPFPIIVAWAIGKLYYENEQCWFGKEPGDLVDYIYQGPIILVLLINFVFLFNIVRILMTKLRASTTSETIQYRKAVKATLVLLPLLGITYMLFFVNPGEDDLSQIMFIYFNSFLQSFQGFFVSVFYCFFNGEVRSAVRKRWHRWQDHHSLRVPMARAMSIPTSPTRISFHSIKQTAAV
# T3 sequence (P24387 whole entry): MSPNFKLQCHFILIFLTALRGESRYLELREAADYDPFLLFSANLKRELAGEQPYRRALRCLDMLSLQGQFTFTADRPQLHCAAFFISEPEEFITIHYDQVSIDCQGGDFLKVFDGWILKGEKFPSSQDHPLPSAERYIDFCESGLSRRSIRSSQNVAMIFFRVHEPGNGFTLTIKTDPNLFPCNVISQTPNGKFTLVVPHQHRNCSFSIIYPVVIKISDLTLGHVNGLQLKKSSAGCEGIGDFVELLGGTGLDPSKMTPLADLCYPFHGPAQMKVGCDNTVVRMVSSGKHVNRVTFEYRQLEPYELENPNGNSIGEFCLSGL
# [5] = target: T3, Corticotropin-releasing factor receptor 2/Corticotropin-releasing factor-binding protein; experiment: activators of CRF receptor 2 with binding protein – uHTS hits, confirmation (AID 602473); type: functional; conditions: read-out: EC50_Mean
# [6] = Shn3 3'UTR reporter inhibitors, dose response, cell-based, Clone20 osteoblasts, firefly luciferase, cherry-picked (AID 624132); type: functional;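 further: firefly luciferase luminescence from reporter carrying the Shn3 3'UTR in osteoblasts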
# [7] = HepG2 cell cytotoxicity, dose response, cytotoxicity control for Shn3 inhibitor project, CellTiter-Glo, cherry-picked (AID 624134); type: functional, cell-based
# [8] = control 3'UTR Renilla luciferase suppression, dose response, counter-screen for Shn3 inhibitor project, cell-based, Clone20-Shn3RL, cherry-picked (AID 624133); type: functional
# HEK293 = experiment: inhibitors of LMP1-driven NF-kB reporter, dose response, cell-based, HEK293, luciferase, cherry-pick (AID 588343); type: functional; conditions: Homo sapiens
# [9] = THP-1 cell cytotoxicity, dose response, cytotoxicity control for Vif-APOBEC3G degradation inhibitor project, THP-1 cells (AID 1117359); type: functional; conditions: Human immunodeficiency virus 1, THP-1
# Caspase-3 = target: T4, Caspase-3 (Homo sapiens, UniProt P42574); type: functional;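 further: Dose-response selectivity test against caspase-3 for candidate inhibitors of sentrin-specific proteases (SENPs)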
# T4 sequence (P42574 whole entry): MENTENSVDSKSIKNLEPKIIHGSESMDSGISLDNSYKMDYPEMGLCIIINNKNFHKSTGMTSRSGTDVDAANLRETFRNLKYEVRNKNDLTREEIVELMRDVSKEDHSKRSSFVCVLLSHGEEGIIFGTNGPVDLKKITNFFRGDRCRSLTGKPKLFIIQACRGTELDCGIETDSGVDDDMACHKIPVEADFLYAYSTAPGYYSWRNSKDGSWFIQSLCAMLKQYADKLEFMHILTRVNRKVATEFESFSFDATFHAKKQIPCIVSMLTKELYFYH
# [10] = target: T5, Sentrin-specific protease 7 (Homo sapiens, UniProt Q9BQF6); type: functional;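 further: Luminescence-based dose-response confirmation of ultra-high-throughput screening hits, measuring inhibition of SENP7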
# T5 sequence (Q9BQF6 whole entry): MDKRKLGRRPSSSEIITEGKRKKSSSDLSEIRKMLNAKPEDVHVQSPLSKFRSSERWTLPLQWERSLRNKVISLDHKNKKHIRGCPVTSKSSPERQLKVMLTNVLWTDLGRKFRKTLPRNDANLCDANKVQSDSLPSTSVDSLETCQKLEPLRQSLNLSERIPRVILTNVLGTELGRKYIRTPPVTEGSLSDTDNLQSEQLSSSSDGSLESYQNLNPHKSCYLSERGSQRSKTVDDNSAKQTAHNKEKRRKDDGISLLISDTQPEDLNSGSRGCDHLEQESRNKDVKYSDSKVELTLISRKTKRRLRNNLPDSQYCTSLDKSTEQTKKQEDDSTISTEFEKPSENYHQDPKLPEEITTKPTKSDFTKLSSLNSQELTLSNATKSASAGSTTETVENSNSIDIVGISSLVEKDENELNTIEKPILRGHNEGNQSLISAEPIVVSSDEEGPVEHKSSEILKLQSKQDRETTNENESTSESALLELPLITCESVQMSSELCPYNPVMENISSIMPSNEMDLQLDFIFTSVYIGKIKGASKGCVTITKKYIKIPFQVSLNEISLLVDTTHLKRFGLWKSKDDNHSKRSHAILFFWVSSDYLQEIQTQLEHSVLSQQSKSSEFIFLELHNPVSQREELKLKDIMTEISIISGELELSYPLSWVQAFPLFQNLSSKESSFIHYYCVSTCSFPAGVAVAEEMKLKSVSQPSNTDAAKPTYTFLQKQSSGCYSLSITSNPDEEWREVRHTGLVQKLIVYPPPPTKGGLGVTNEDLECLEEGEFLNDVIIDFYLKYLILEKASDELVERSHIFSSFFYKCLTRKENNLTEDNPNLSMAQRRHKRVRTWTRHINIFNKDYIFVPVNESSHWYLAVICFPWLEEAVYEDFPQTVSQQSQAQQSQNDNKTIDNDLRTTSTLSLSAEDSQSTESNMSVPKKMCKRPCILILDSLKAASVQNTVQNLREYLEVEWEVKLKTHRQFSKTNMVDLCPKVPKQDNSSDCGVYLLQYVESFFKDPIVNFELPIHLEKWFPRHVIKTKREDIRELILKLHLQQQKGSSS
# [11] = target: T6, Sentrin-specific protease 6 (Homo sapiens, UniProt Q9GZR1); type: functional;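 further: Luminescence-based dose-response confirmatory assay of SENP6 inhibition, following up an ultra-high-throughput screen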
# T6 sequence (Q9GZR1 whole entry): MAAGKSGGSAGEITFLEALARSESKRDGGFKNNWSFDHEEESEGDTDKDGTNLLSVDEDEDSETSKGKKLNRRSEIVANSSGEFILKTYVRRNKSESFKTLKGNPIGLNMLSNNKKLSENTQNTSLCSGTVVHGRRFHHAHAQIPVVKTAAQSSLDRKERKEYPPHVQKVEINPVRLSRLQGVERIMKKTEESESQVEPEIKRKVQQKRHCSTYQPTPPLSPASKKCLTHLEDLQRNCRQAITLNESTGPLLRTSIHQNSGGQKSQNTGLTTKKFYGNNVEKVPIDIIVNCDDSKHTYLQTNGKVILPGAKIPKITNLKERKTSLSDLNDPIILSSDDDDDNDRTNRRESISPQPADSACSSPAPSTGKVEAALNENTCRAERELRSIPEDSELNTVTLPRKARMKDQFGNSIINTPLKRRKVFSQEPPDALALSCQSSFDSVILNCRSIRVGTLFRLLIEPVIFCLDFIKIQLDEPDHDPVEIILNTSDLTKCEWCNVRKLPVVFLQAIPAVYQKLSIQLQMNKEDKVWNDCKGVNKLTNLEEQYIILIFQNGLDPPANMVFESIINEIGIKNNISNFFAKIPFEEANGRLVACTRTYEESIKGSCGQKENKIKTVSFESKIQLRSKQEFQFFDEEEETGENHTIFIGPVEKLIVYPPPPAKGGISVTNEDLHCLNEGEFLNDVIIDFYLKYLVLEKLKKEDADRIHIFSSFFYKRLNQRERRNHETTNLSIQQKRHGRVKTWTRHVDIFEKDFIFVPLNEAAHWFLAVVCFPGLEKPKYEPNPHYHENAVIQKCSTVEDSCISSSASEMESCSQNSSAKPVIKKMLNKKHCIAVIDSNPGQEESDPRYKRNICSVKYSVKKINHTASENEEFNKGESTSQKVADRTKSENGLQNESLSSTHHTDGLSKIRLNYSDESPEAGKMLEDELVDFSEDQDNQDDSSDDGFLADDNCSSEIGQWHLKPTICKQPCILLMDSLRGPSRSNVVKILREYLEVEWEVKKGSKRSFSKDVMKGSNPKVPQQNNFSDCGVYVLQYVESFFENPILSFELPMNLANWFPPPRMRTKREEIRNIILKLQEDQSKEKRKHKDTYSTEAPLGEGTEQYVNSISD
# [12] = target: T7, Sentrin-specific protease 8 (Homo sapiens, UniProt Q96LD8); type: functional;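 further: luminescence read-out of SENP8 inhibition, dose-response confirmation following an ultra-high-throughput screen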
# T7 sequence (Q96LD8 whole entry): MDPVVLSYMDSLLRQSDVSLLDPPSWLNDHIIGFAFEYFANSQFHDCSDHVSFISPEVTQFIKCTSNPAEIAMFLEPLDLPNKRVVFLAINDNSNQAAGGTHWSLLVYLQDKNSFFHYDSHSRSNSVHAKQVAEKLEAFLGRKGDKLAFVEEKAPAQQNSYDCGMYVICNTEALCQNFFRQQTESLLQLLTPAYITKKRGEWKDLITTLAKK
# Cytochrome P450 2C19 = Cytochrome P450 2C19 (Homo sapiens, UniProt P33261); experiment: Cytochrome panel assay with activity outcomes. Panel member name: p450-cyp2c19 Compounds with AC50 equal or less than 10 uM are considered active; type: functional; conditions: read-out: AC50
# Cytochrome P450 2C19, sequence (P33261 whole entry): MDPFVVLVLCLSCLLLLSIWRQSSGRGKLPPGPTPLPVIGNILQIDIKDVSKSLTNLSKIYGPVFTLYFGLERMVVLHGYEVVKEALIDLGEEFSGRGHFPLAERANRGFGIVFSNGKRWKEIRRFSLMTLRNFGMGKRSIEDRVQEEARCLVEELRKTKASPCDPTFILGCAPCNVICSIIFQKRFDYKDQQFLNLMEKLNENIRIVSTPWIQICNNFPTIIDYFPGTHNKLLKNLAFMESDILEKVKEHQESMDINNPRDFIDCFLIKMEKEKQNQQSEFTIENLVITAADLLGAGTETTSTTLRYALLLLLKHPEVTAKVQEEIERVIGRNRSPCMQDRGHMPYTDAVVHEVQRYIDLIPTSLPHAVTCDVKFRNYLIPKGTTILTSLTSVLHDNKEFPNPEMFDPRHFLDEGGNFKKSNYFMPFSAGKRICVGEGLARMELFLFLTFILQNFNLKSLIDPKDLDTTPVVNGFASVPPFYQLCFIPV
# Cytochrome P450 2D6 = Cytochrome P450 2D6 (Homo sapiens, UniProt P10635);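 further: CYP2D6 member of a cytochrome P450 panel assay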
# Cytochrome P450 2D6, sequence (P10635 whole entry): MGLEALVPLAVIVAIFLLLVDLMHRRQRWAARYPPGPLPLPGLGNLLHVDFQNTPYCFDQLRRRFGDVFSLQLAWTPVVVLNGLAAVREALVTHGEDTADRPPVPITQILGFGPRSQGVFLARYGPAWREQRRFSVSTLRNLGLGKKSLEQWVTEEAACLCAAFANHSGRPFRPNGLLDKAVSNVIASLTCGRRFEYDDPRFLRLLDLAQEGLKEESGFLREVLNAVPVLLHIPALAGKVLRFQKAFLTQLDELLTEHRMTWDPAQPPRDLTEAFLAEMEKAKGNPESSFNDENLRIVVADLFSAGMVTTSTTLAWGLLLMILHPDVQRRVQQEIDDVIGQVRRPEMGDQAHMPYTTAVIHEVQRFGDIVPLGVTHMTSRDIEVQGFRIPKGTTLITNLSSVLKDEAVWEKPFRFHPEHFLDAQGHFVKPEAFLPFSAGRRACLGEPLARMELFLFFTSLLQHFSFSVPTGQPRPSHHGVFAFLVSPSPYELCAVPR
# Cytochrome P450 1A2 = target: T8, Cytochrome P450 1A2 (Homo sapiens, UniProt P05177);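 further: PubChem cytochrome P450 panel assay, CYP1A2 panel member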
# T8 sequence (P05177 whole entry): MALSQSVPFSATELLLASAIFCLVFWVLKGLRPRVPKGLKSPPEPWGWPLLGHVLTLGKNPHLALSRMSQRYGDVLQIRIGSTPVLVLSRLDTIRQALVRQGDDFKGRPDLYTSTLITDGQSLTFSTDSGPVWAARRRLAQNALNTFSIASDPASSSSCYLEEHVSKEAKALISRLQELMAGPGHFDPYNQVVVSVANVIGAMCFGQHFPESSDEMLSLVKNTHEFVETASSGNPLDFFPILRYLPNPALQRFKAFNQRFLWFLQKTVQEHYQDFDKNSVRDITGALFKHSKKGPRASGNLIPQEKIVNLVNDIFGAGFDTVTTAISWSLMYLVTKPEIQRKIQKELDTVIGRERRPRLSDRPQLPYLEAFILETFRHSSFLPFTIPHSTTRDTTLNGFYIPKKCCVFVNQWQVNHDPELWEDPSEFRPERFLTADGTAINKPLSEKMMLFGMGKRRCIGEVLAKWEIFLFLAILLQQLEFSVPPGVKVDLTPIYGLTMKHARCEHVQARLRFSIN
# [13] = target: Glyceraldehyde-3-phosphate dehydrogenase (Homo sapiens, UniProt P04406)
# Glyceraldehyde-3-phosphate dehydrogenase, sequence (P04406 whole entry): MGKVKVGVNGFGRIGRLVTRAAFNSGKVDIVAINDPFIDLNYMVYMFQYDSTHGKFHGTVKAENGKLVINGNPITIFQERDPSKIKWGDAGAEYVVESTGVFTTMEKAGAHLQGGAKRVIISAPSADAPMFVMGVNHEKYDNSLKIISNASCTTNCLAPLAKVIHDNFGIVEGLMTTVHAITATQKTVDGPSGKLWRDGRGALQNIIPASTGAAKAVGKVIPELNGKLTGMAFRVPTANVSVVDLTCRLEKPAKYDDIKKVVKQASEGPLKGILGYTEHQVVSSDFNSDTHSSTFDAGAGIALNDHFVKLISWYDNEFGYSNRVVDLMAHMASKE
# T1 sequence (Q92731 whole entry): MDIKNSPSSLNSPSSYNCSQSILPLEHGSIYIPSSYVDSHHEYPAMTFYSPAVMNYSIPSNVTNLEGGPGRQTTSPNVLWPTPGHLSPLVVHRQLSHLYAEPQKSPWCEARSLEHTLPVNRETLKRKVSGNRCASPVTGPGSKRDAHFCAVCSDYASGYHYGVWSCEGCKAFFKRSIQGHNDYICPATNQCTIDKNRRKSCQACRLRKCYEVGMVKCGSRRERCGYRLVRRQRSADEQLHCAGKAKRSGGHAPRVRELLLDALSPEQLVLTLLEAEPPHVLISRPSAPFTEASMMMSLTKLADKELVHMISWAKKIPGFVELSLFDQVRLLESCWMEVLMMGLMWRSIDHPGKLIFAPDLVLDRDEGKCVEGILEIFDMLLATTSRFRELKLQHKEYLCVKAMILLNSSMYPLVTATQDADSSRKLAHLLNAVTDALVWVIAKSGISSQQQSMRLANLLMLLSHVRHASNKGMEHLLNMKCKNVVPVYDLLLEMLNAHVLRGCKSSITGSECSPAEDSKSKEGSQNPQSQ
compound,measurement,setting,value
COCCn1c(C)cc(C(=O)COC(=O)c2cc3c(s2)CCC3)c1C,IC50,Estrogen receptor beta [1],> 50 µM (not active)
same,IC50,Estrogen receptor beta [2],14.9 µM (active)
same,IC50,[3],7.35 µM (active)
same,IC50,[4],> 47.1 µM (inactive)
same,EC50,[5],> 53 µM (inactive)
O=C1CSc2ccc(C(=O)Nc3cccc(S(=O)(=O)Nc4ccc(Br)cc4)c3)cc2N1,AC50,[6],3.08 µM (active)
same,AC50,[7],45.6 µM (active)
same,AC50,[8],8.81 µM (active)
Cc1cc(C(=O)COC(=O)c2cccc(NS(C)(=O)=O)c2)c(C)n1CC1CCCO1 (stereo not given),AC50,HEK293,3.15 µM (active)
COc1ccc(S(=O)(=O)N2CCN(C(=O)c3cc(-c4ccccc4OC)[nH]n3)CC2)cc1,CC50,[9],> 40 µM (active)
C/C(=N\OC(=O)c1ccccc1F)c1nccs1,IC50,Caspase-3,71.1 µM (active)
same,IC50,[10],2.97 µM (active)
same,IC50,[11],17.2 µM (active)
same,IC50,[12],62.9 µM (active)
same,AC50,Cytochrome P450 2C19,35.5 µM (inconclusive)
same,AC50,Cytochrome P450 2D6,28.2 µM (inconclusive)
same,AC50,Cytochrome P450 1A2,31.6 µM (inconclusive)
CC1C=CC=CC=CC=CC=CC=CC=CC(OC2OC(C)C(O)C(N)C2O)CC2OC(O)(CC(O)CC(O)C(O)CCC(O)CC(O)CC(=O)OC(C)C(C)C1O)CC(O)C2C(=O)O (stereo not given),IC50,[3],1.17 µM (active)
same,CC50,[9],3.14 µM (active)
CCOc1ccccc1-n1nnnc1SCC(=O)NC(=O)NCc1ccco1,IC50,Estrogen receptor beta [1],7.76 µM (active)
same,IC50,Estrogen receptor beta [2],9.38 µM (not active)
CCOc1ccc2nc(NC(=O)CCC(=O)c3cccs3)sc2c1,IC50,Estrogen receptor beta [1],9.84 µM (active)
same,IC50,Estrogen receptor beta [2],0.0637 µM (not active)
Cc1ccnc(NC(=O)c2ccc(Cl)c(S(=O)(=O)N3CCCC3)c2)c1,CC50,[9],> 40 µM (active)
Cc1nc2ccc(NS(=O)(=O)c3ccc4c(c3)OCCO4)cc2s1,AC50,[6],0.635 µM (active)
same,AC50,[7],4.15 µM (active)
same,AC50,[8],> 70 µM (inactive)
CC(=O)Nc1nonc1-c1nc2ccccc2n1N(C(C)=O)C(C)=O,IC50,Estrogen receptor beta [1],2.75 µM (active)
same,IC50,Estrogen receptor beta [2],> 109 µM (not active)
COc1cccc(N2C(=O)C(Cl)=C(N3CCN(Cc4ccccc4)CC3)C2=O)c1,IC50,[13],> 50 µM (inconclusive)
O=C1C(Cl)=C(N2CCN(Cc3ccc4c(c3)OCO4)CC2)C(=O)N1c1ccnc(Cl)c1,IC50,[13],> 50 µM (inconclusive)
Cc1ccccc1/C=C\c1nc(O)c2ccccc2n1,IC50,Caspase-3,3.24 µM (active)
same,IC50,[10],2.16 µM (active)
same,IC50,[11],2.74 µM (active)
same,IC50,[12],2.64 µM (active)
